Measurements: patent US12138301B2, “Compounds including a mutant KRAS sequence and a lipid and uses thereof” (Elicio Therapeutics, Inc., priority 2018, dated 2024)
Entries after “also recorded” stand apart in the source; their conditions may differ.

Columns and labels:
splenocytes [1] = assay: ELISpot analysis for IFNγ on splenocytes of immunized mice (Example 1, KRas G12D); format: in vivo, C57BL/6 mice; conditions: splenocytes activated with G12D 18mer 5 μg/well
Description: The efficacy of soluble-KRas (KRas) or amphiphile-KRas (aKRas) (FIG. 6) mutant sequences and an amphiphile-CpG adjuvant (aCpG) to elicit an immune response was determined.
The experimental design included the following 4 groups of C57BL16 mice immunized with the listed compounds (n=5 for each group): • 1. KRas G12D+aCpG • 2. aKRas G12D+aCpG • 3. KRas G12D+pIC • 4. No immunization
PolyIC (pIC) was used as a benchmark adjuvant control.
The adjuvant, as well as peptide stock, solutions were dissolved in H2O. Final injections were diluted with 1×PBS (phosphate buffered saline).
The aKRas peptides used were 18mer sequences of mutant sequences with a G12D substitution (amino acids 4-21 of wild-type→YKLVVVGAGGVGKSALTI (SEQ ID NO:9)). 20 μg in 100 μl were used for each injection.
The aCpG sequence used was the CpG1826 sequence (5′-[…]-3′; SEQ ID NO:10) with two guanines added at the 5′ end (5′-gg […]-3′; SEQ ID NO:11) at a concentration of 5 nmol for each 100 μl injection. CpG1826 is an optimal mouse sequence while CpG7909 is optimal for humans and poorly active in mice. CpG1826 and CpG7909 are in the same CpG class (class B) and generally have similar activity profiles in their respective species.
50 μg of pIC were used for each 100 μl injection.
Primer immunizations were given subcutaneously (s.c.) into the tail base (day 0) with one booster dose after 2 weeks (day 14). ELISpot analysis for IFNγ on splenocytes was performed, using standard protocols, […] after booster dose administration (day 21). Splenocytes (10^6 cells/well) were activated with 5 μg/well of G12D sequence 18mer (aa4-21)→YKLVVVGADGVGKSALTI (SEQ ID NO:1).

PBMCs/Splenocytes = assay: ICS for IFNγ on PBMCs and ELISpot for IFNγ on splenocytes of immunized HLA-A2.1 transgenic mice (Example 3); format: in vivo, B6 HLA-A2.1 Tg mice; conditions: peptide 20 μg s.c., two boosters at two-week intervals, HLA-A2.1 Tg mice
Text: B6 mice transgenic for the human HLA gene, A2.1, were immunized either with the soluble or amphiphile-conjugated forms of the KRas G12D antigen, as well as adjuvant (CpG or aCpG). The A2.1 allele is known to mount responses to the KRas peptides in humans.
The experimental design included the following 4 groups of B6 HLA-A2.1 Tg mice immunized with the listed compounds (n=5 for each group): • 1. KRas wild-type+CpG • 2. KRas 12D+CpG • 3. aKRas 12D+aCpG • 4. No immunization
(§1) The adjuvant as well as peptide stock solutions were dissolved in H2O. Final injections were diluted with 1×PBS.
The aKRas peptides used were 18mer sequences of mutant sequences with a G12D substitution (amino acids 4-21 of wild-type 4 […] (SEQ ID NO:9)). 20 μg in 100 μl were used for each injection.
(§2) The aCpG sequence used was the CpG1826 sequence (5′-[…]-3′; SEQ ID NO:10) with two guanines added at the 5′ end (5′-gg […]-3′; SEQ ID NO:11) at a concentration of 5 nmol for each 100 μl injection.
The vaccine was administered subcutaneously to female mice bilaterally at the tail base at 50 μl per side. Two booster doses were given in two-week intervals.
Intracellular cytokine staining (ICS) analysis for IFNγ on peripheral blood mononuclear cells (PBMCs) and ELISpot analysis for IFNγ on splenocytes was performed, using standard protocols, 7 days after the second and third booster dose, respectively.
PBMCs/Splenocytes (10^6 cells/well and 2×10^6 cells/well) were activated with 5 μg/well of either SEQ ID NO:1 or one of SEQ ID NOS:12-20 as shown below:
Specific mutant peptides are given only to the mice that were immunized with the corresponding 18mer.

splenocytes [2] = assay: ELISpot analysis for IFNγ on splenocytes, higher antigen concentration and bi-weekly or weekly dosing (Example 4); format: in vivo, C57BL/6 mice; conditions: peptide 50 μg s.c.; for KRas-specific CD8+ T-cell response (9mers): restimulation with 9mers; for CD8+ or CD4+ T-cell response (18mer): restimulation with 18mer
Description: The concentration of antigen was increased from 20 μg to 50 μg and bi-weekly (bw) or weekly (w) dose intervals were tested.
The experimental design included the following 5 groups of C57BL/6 mice immunized with the listed compounds (n=5 for each group): • 1. KRas 12D+CpG1826 (bw) • 2. KRas 12D+CpG1826 (w) • 3. aKRas 12D+aCpG1826 (bw) • 4. aKRas 12D+aCpG1826 (w) • 5. No immunization
as §1
50 μg in 100 μl were used for each injection.
as §2
Primer immunizations were given subcutaneously (s.c.) into the tail base with one booster dose after 2 weeks.
ELISpot analysis for IFNγ, and CBA (cytometric bead array) analysis for IL6, I-10, IL12, TNFα, IFNγ, and MCP1 was performed on splenocytes, using standard protocols, 7 days after booster dose administration.
Specific mutant peptides were given only to the mice that were immunized with the corresponding 18mer.
Separate plates were prepared for either short (9mer and 10mer) or long (17mer and 18mer) peptide stimulations. Cells from “No immunization” control mice were stimulated with all stimuli.

[3] = system: KRAS-specific splenic T-cells; assay: Summary of mouse immunogenicity studies: KRAS-specific splenic T-cells by ELISPOT and cytokine bead array (Example 5); format: in vivo, C57BL/6 mouse; conditions: subcutaneous administration; identified by ELISPOT and cytokine bead array
splenocytes [4] = assay: ELISpot analysis for IFNγ on splenocytes of immunized mice (Example 2, KRas G12R and G12V); format: in vivo, C57BL/6 mice; conditions: in combination with aCpG 5 nmol; peptide 20 μg s.c. day 0 + booster d14; splenocytes activated with G12V or G12R 18mer 5 μg/well
Description: as §2

[5] = in combination with aCpG 5 nmol, peptide 20 μg s.c. tail base day 0 + booster day 14
[6] = in combination with aCpG 5 nmol

For “DSPE-amido-dPEG24-amido-dPEG24-CYKLVVVGADGVGKSALTI [aKRas G12D]”, the “activation of splenocytes (ELISpot for IFNγ)” value (from here on “activation of splenocytes”) (splenocytes [1]; [5]) was “activated splenocytes”, the “KRas-specific CD8+ T-cell response” value (PBMCs/Splenocytes; [6]) was “KRas-specific CD8′ T-cell response; also recorded: KRas-specific CD8^+ T-cell response” and the “KRas-specific CD8+ T-cell response (9mers)” value (splenocytes [2]; [6]) was “KRas-specific CD8^+ T-cell response”. The “CD8+ or CD4+ T-cell response (18mer)” value (splenocytes [2]; [6]) was “CD8′ or CD4*T-cell response; also recorded: CD8^+ or CD4^+ T-cell response” and the “inducing KRAS-specific splenic T-cells in mice” value [3] was “effective”.
With YKLVVVGADGVGKSALTI [soluble KRas G12D] the “activation of splenocytes” value (splenocytes [1]; [5]) was “did not”, the “activation of splenocytes” value (splenocytes [1]; in combination with pIC 50 μg, peptide 20 μg s.c. day 0 + booster day 14) was “did not” and the “KRas-specific CD8+ T-cell response” value (PBMCs/Splenocytes; in combination with CpG) was “not”. The “KRas-specific CD8+ T-cell response (9mers)” value (splenocytes [2]; in combination with CpG) was “not” and the “CD8+ or CD4+ T-cell response (18mer)” value (splenocytes [2]; in combination with CpG) was “not”.
For “YKLVVVGAGGVGKSALTI [soluble wild-type KRas]”, the “KRas-specific CD8+ T-cell response” value (PBMCs/Splenocytes; in combination with CpG) was “not”.
YKLVVVGARGVGKSALTI [soluble KRas G12R] was tested, and the “activation of splenocytes” value (splenocytes [4]) was “did not”.
In the case of YKLVVVGAVGVGKSALTI [soluble KRas G12V], the “activation of splenocytes” value (splenocytes [4]) is reported as “did not”.
